{
  "source": "patent US20190298743A1",
  "about": "“TREATMENT OF PAIN” (Takeda Pharmaceutical Company Limited, priority 2016, published 2019)",
  "key": {"PAR2 [1]": {"system": "PAR2", "test": "Whole population FRET with nuclear ERK sensor NucEKAR in HEK293 cells", "format": "cell-based", "method": "(§1) Förster Resonance Energy Transfer (FRET) was used to characterise PAR2 mediated ERK within different subcellular compartments upon stimulation with different agonists. The assays were repeated after employing pharmacological and genetic approaches shown to abolish receptor internalisation to assess the role of internalisation in generating compartmentalised signals.\nAfter achieving ˜50% confluency within 10 cm dishes HEK293 cells were transfected with 2-5 μg of PAR2 with N-terminal HA epitope tag (PAR2-HA) and 2-5 μg of desired FRET biosensor, using PEI as a transfection agent. 24 hours after transfection, cells were seeded into poly-D-lysine coated black 96 well isoplates. FRET was assessed 48 hours after cell plating, following overnight serum restriction. […] When used endocytic inhibitors were diluted in 1×HBSS+1% dimethyl sulfoxide (DMSO). Following the replacement of culture media cells were allowed to equilibrate at 37° C. for 30 minutes. FRET was then determined using a PHERAstar FS microplate reader (BMG LabTech, Offenburg, Germany), cells were sequentially excited at 430 nm with emissions being read at 550 nm and 490 nm. A 4 minute baseline was obtained before the addition of vehicle (1×HBSS+/−1% DMSO), protease or 1 μM PDBu (serving as a positive control). […] FRET ratios were then calculated and corrected to baseline and vehicle treatments in Microsoft Excel 2013."}, "PAR2 [2]": {"system": "PAR2", "test": "Whole population FRET with cytosolic ERK sensor CytoEKAR in HEK293 cells", "format": "cell-based", "method": "as §1\nAfter achieving ˜50% confluency within 10 cm dishes HEK293 cells were transfected with 2-5 μg of PAR2 with N-terminal HA epitope tag (PAR2-HA) and 2-5 μg of desired FRET biosensor, using PEI as a transfection agent. 24 hours after transfection, cells were seeded into poly-D-lysine coated black 96 well isoplates. FRET was assessed 48 hours after cell plating, following overnight serum restriction. […] When used endocytic inhibitors were diluted in 1×HBSS+1% dimethyl sulfoxide (DMSO). Following the replacement of culture media cells were allowed to equilibrate at 37° C. for 30 minutes. FRET was then determined using a PHERAstar FS microplate reader (BMG LabTech, Offenburg, Germany), cells were sequentially excited at 430 nm with emissions being read at 550 nm and 490 nm. A 4 minute baseline was obtained before the addition of vehicle (1×HBSS+/−1% DMSO), protease or 1 μM PDBu (serving as a positive control). Measurements were then continued every minute for a further 30 minutes. FRET ratios were then calculated and corrected to baseline and vehicle treatments in Microsoft Excel 2013."}, "PAR2 [3]": {"system": "PAR2", "test": "BRET proximity of PAR2 to KRas (plasma membrane) and Rab5a (endosomes) in HEK cells", "format": "cell-based", "conditions": "HEK cells", "method": "(§2) The contribution of endocytosis of protease-activated receptor-2 (PAR2) was evaluated for generation of signals in subcellular compartments that mediate protease-evoked sensitization of nociceptors. Bioluminescence resonance energy transfer (BRET) was used to assess the proximity of PAR2 to resident proteins of the plasma membrane (KRas) and endosomes (Rab5a) in HEK cells. […] Förster resonance energy transfer (FRET) biosensors targeted to the plasma membrane, cytosol or nucleus were used to examine the capacity of proteases to generate signals in subcellular compartments of HEK cells and rat dorsal root ganglia neurons. […] Dynamin inhibitor Dyngo4a, Clathrin inhibitor Pitstop2 and dominant negative β-arrestin inhibited trypsin-evoked endocytosis of PAR2, and prevented trypsin-evoked activation of cytosolic cAMP and PKC and nuclear ERK. […] To examine the link between PAR2 endocytosis, compartmentalized signaling and nociceptor sensitization, perforated patch clamp recordings were made from mouse dorsal root ganglia neurons. […] The effects of proteases on excitability were blocked by the PAR2 antagonist GB88. Thus, canonical and biased proteases sensitize nociceptors by distinct mechanisms. For canonical agonists, PAR2 endocytosis generates compartmentalized signals subcellular compartments that underlie sustained excitability of nociceptive neurons. Inhibiting endosomal signaling of PAR2 may provide a novel method of treating protease-evoked pain."}, "PAR2 [4]": {"system": "PAR2", "test": "BRET receptor trafficking, PAR2-RLuc8 with early endosomal marker Rab5a-venus in HEK293 cells", "format": "cell-based", "method": "(§3) Bret studies of receptor trafficking were conducted to quantify PAR2 internalisation (RIT-venus) and trafficking to early endosomes (Rab5a-venus) upon stimulation with different agonists.\n(§4) After achieving ˜50% confluency within 10 cm dishes HEK293 cells were transiently transfected with 1 μg PAR2-RLuc8 and 4 μg of either RIT-venus or Rab5a-venus using PEI as a transfection agent. 24 hours post transfection, cells were seeded into poly-D-lysine coated 96-well isoplates. […] When used endocytic inhibitors were diluted in 1×HBSS+1% dimethyl sulfoxide (DMSO). Following the replacement of culture media cells were allowed to equilibrate at 37° C. for 30 minutes before the addition of colenterazine H [5 μM]. After a further 5 minute incubation BRET was assessed using a LUMIstar Omega microplate reader (BMG LabTech, Offenburg, Germany), with luminescence being read at 535 nm and 475 nm. A 4 minute baseline was obtained before the addition of vehicle (1×HBSS+/−1% DMSO) or protease, measurements were then continued for a further 30 minutes. BRET ratios were calculated using LUMIstar MARS analysis software and then corrected to baseline and vehicle treatments in Microsoft Excel 2013."}, "PAR2 [5]": {"system": "PAR2", "test": "FRET biosensors for compartmentalised cAMP, PKC and ERK signals in HEK cells and rat dorsal root ganglia neurons", "format": "cell-based", "method": "as §2"}, "PAR2 [6]": {"system": "PAR2", "test": "BRET receptor trafficking, PAR2-RLuc8 with plasma membrane marker RIT-venus in HEK293 cells", "format": "cell-based", "method": "as §3, §4"}, "DRG neurons": {"system": "DRG neurons", "test": "Perforated patch-clamp excitability (rheobase) of isolated DRG neurons", "format": "cell-based, mice", "conditions": "0 min and 30 min after washing", "method": "To assess the effects of proteases on excitability of nociceptors, DRG neurons were preincubated with trypsin, cathepsin S, elastase or vehicle (control), washed, and rheobase and action potential discharge at a current of twice rheobase were measured at 0 min or 30 min after washing.\nDRG (T9-T13) from C57BL/6 mice were digested by incubation in collagenase (1 mg/ml, Worthington Biochemical, Lakewood, N.J.) and dispase (4 mg/ml, Roche Life Science, Indianapolis, Ind.) for 10 min at 37° C., and were dispersed by trituration with a fire-polished Pasteur pipette. Cells were plated onto coverslips coated with laminin (0.017 mg/ml) and poly-D-lysine (2 mg/ml) in 24-well plates. Neurons were cultured in F12 medium (Cat N668, Lot RNBD5333, Sigma-Aldrich, St Louis, Mo. USA) containing 10% fetal calf serum, with penicillin and streptomycin and maintained at 37° C. in a humidified atmosphere of 95% air and 5% CO2 until retrieval (16 h) for electrophysiological studies.\nNeuronal excitability was assessed by perforated patch-clamp recordings with amphotericin B (240 μg/ml) from small diameter neurons (<30 pF capacitance) in current clamp mode at room temperature. Only neurons with resting membrane potentials more negative than −40 mV were analyzed. Changes in excitability were quantified by measuring rheobase (minimum current to fire action potential) and numbers of action potentials discharged at twice rheobase. Recordings were made using Axopatch 200B amplifiers, digitized by Digidata 1322A and stored and processed using pClamp 10.1 software (Molecular Devices, Sunnyvale, Calif.). The recording chamber was continuously perfused with external solution at 2 ml/min. External solution was (mM): 140 NaCl, 5 KCl, 10 HEPES, 10 D-glucose, 1 MgCl2, 2 CaCl2; pH to 7.4 with 3 M NaOH. Pipette solution was (mM): 110 K-gluconate, 30 KCl, 10 HEPES, 1 MgCl2, 2 CaCl2; pH 7.25 with 1 M KOH.\nDRG neurons were pre-incubated with vehicle (control) or proteases using conditions that we have reported to cause robust hyperexcitability: trypsin (50 nM, 10 min), elastase (10 U/ml, 390 nM, 30 min), Cat-S (500 nM, 60 min). Neurons were then washed and maintained in protease-free F12 medium. Neuronal excitability was assessed 0 or 30 min after washing. In some experiments, neurons were incubated with vehicle (0.3% DMSO), Dyngo4a (30 μM) or PitStop2 (15 μM) for 30 min before and during incubation with proteases.\nResults are expressed as mean±SE. Two way ANOVA and post hoc Tukey's tests were used to analyze the data."}, "[7]": {"test": "Protease-evoked mechanical hyperalgesia, von Frey paw withdrawal", "format": "in vivo, mice", "conditions": "ipsilateral paw", "method": "(§5) Immediately before experiments the mice were acclimatized to the experimental apparatus, room and investigator for 1-2 h on 2 successive days. Mechanical nociceptive responses were evaluated by paw withdrawal to stimulation of the plantar surface of the hind-paw with calibrated von Frey filaments. von Frey scores were measured in triplicate to establish a baseline for each animal on the day before experiments. Paw edema was estimated by measuring the thickness of the hindpaw using digital calipers before and after treatments. Mice were […] with 5% isoflurane for intraplantar injections. Dyngo4a (50 μM), PitStop2 (50 μM) or vehicle (0.2% DMSO in 0.9% NaCl) (all 10 μl) were injected into the left hindpaw. After 30 min, trypsin (10 nM), Cat-S (2.5 μM) or elastase (30 U) (all 10 μl) were injected into the same left hindpaw. von Frey scores (left and right paws) and paw thickness (left paw) were measured hourly for up to 4 h after protease injection. Investigators were blinded to the test agents."}, "[8]": {"test": "Protease-evoked paw edema, hindpaw thickness", "format": "in vivo, mice", "conditions": "ipsilateral paw", "method": "as §5"}},
  "data": [
    {"substance": "trypsin", "values": [
      {"measurement": "Ability of agonist to produce ERK signals within the nucleus", "setting": "PAR2 [1]", "value": "able to produce ERK signals"},
      {"measurement": "Ability of agonist to produce ERK signals within the cytoplasm", "setting": "PAR2 [2]", "value": "able to produce ERK signals"},
      {"measurement": "PAR2 endocytosis induced by agonist", "setting": "PAR2 [3]", "value": "increases BRET between PAR2 and Rab5a and decreases BRET between PAR2 and KRas"},
      {"measurement": "EC50", "setting": "PAR2 [4]; Rab5a-venus, CRC from AUC data, read-out: EC50 of trypsin induced internalisation of PAR2, early endosomal marker", "value": "~2.8", "unit": "nM"},
      {"measurement": "Change in BRET between PAR2 and early endosomal marker upon agonist stimulation", "setting": "PAR2 [4]; trypsin 10 nM", "value": "increase in BRET"},
      {"measurement": "Signals generated by protease in subcellular compartments", "setting": "PAR2 [5]", "value": "activated cAMP and protein kinase C (PKC) at the plasma membrane and in the cytosol, and extracellular signal regulate kinase (ERK) in the nucleus and cytosol"},
      {"measurement": "EC50", "setting": "PAR2 [6]; RIT-venus, CRC from AUC data, read-out: EC50 of trypsin induced internalisation of PAR2, plasma membrane marker", "value": "~2.8", "unit": "nM"},
      {"measurement": "Change in BRET between PAR2 and plasma membrane marker upon agonist stimulation", "setting": "PAR2 [6]; trypsin 10 nM", "value": "time dependent decrease in BRET"},
      {"measurement": "Effect of protease on excitability (rheobase) of DRG neurons", "setting": "DRG neurons", "value": "immediate increase in excitability"},
      {"measurement": "Mechanical hyperalgesia after intraplantar injection of protease", "setting": "[7]", "value": "caused mechanical hyperalgesia of the ipsilateral paw that was sustained for at least 4 h"},
      {"measurement": "Edema after intraplantar injection of protease", "setting": "[8]", "value": "edema of the ipsilateral paw that was maximal after 4 h"}
    ]}
  ]
}
